In data set [1] the test system is SARS-CoV-2. The following applies: Bojkova et al. 2020; cited from earlier work.
The conditions of data set [2]: very high tolerance; cited from earlier work.
The test system of data set [3] is SARS-CoV-2. Type of data set: cell-based. To be noted: for TCID50/ml: Vero-E6, M.O.I 0.001.
Data set [4] concerns SARS-CoV-2. Type of data set: cell-based.
The subject of data set [5] is Human Bronchial Epithelial Cells (HBEpiC). The data set can be described thus: Cell viability (CellTiter 96 AQueous), long exposure. It counts as cell-based. The following applies: 48 h exposure (FIG. 5). Here is the method:
(§1) Human Bronchial Epithelial Cells (HBEpiC) were obtained from Innoprot (Cat no. P10557, batch no. 7475) and cultured in Bronchial Epithelial Cell Medium (Innoprot, Cat no. P60151) supplemented with 0.2% gentamicin (Gibco, Life Technologies, USA, Cat. no. 15710-049) under standard cell culture conditions (5% CO2, 16% O2, 37° C.). HBEpiC at passage 6, were plated in Bronchial Epithelial Cell Medium at 9.0 thousand cells per well of a 96-well plate and left for 48 hours in an incubator. The plates were coated with collagen (Collagen I-cell surface coating kit, Innoprot, Cat no. P8188) prior to cell seeding. 2-deoxy-D-glucose (Sigma-Aldrich; Cat no. D8375) was added to the cells for 48 h.
Cells were exposed to compounds at the following concentrations of 2-deoxy-D-glucose in medium as a solvent: 100 mM; 50 mM; 25 mM; 12.5 mM; 6.25 mM; 3.13 mM.
In order to asses cell viability, CellTiter 96® AQueous Solution Assay (Promega) was used in accordance with the manufacturer's instructions, 20 μl of reagent was added per 100 μl of cell culture medium and cells were incubated at 5% CO2, 16% O2, 37° C. Absorbance was measured at 490 nm. The results obtained 4 hours after addition of the CellTiter reagent were analyzed in GraphPadPrism 5.01. Data normalization and a nonlinear regression model were applied in order to determine the IC50.

For another data set, the system named is SARS-CoV-2 Spike Protein. The data set can be described thus: Western blot analysis of Spike protein glycosylation in human bronchial epithelial cells (HBEpiC) transduced with Spike lentiviral vectors. It counts as cell-based. (Immunoblotting shows a protein as a band on a membrane.)
Data set [6] concerns rhinovirus. To be noted: Gualdoni et al. 2018; cited from earlier work.
The subject of data set [7] is primary human bronchial epithelial cells. The data set can be described thus: Toxicity observed in PBEC during the 48 h antiviral incubation. Type of data set: cell-based. To be noted: 48 h incubation. Here is the method: Day 2. Pre-treatment of PBEC cells in 48 wells plate with 2-DG prior to SARS-CoV-2 infection (2 h), and treatment with 2-DG for 48 h. SARS-CoV-2 was added at MOI 10-1 (MOI 0.1) and removed after 2 hours. Then, the cell culture was washed with PBS (3×0.5 mL) and 300 μL of medium with 2-DG from 50 mM to 0.39 mM, or medium with or without remdesivir for control, were added.

Data set [8] relates to SARS-CoV-2. Type of data set: cell-based. To be noted: Vero E6.
Data set [9] deals with rhinovirus. To be noted: Gualdoni et al. 2018; cited from earlier work. This is another data set of the same source.
The nature of data set [10]: 2-DG uptake measurement in lung tissue lysates of mice treated by inhalation. The following applies: 7 days, 14 days. Type of data set: in vivo. Here is the method:
The analysis involved six lung tissue sections of mice (both male and female) treated by inhalation with 2-DG at a concentration of 30 mM thrice a day for 24 hours, 7 days and two weeks. The tissues were weighed, suspended in 10 mM Tris-HCl lysis buffer (pH 8.0) and then subjected to homogenization with the use of homogenizer (MPW-302, Precision Mechanics). Each analyzed sample is described in table below:
The 2DG6P accumulation in cells was determined with the use of 2-Deoxyglucose (2-DG) Uptake Measurement Kit (Cat. No. CSR-OKP-PMG-K01TE; Cosmo Bio Co., LTD., Tokyo, Japan) according to the manufacturer's protocol.
1. Cell and tissue lysates were heat treated at 80° C. for 15 min and then centrifuged at 4° C., 15 000×g for 20 min.
2. The supernatants were transferred to new tubes and used as unknown samples for measurement method (point 5).
3. The 2DG6P standards were prepared by serial dilution of 1 mM 2DG6P in 1× Sample Diluent Buffer in the following ranges: 0; 0.3125; 0.625; 1.25; 2.5 and 5 μM.
4. 60 μL of Reagent Mix A (including NAD and low glucose-6-phosphate dehydrogenase (G6PDH)) were added to each well of 96-ell plate.
5. Then 2DG6P standard and unknown samples (20 μL) were added to each well and incubated for over 19 hours at room temperature.
6. […]
12. The optical density (OD) was read at 420 nm in every 2.5 min over a period of 30 min using a microplate reader preheated to 30° C.

Data set [11] concerns Human Bronchial Epithelial Cells (HBEpiC). The data set can be described thus: Cell viability (CellTiter 96 AQueous), short exposure. It counts as cell-based. To be noted: 15 minutes to 6 hours exposure. Here is the method: as §1, with “at passage 2, were plated” for “at passage 6, were plated”, “Medium at 10.0 thousand cells” for “Medium at 9.0 thousand cells”, “cells for 15 min, 30 min, 1 h, 2 h and 6 h.” for “cells for 48 h.”
Cells were exposed to the compound at the following concentrations of 2-deoxy-D-glucose in medium as a solvent: 200 mM; 100 mM; 50 mM; 25 mM; 12.5 mM; 6.25 mM.
In order to assess cell viability, medium containing 2-deoxy-D-glucose was removed, the fresh medium was added to the cells and CellTiter 96® AQueous Solution Assay (Promega) was used in accordance with the manufacturer's instructions, 20 μl of reagent was added per 100 μl of cell culture medium and cells were incubated at 5% CO2, 16% O2, 37° C. Absorbance was measured at 490 nm. The results obtained 1 hour after addition of the CellTiter reagent were analyzed in GraphPadPrism 5.01. […]

Read-outs that look alike come from different tables or passages of the source.

In the case of `O=CC[C@@H](O)[C@H](O)[C@H](O)CO` [Example 2-DG, 2-deoxy-D-glucose], the SARS-CoV-2 replication entry in the data set with SARS-CoV-2 [1] is on record as “inhibition”. In addition, the “tolerated dose in clinical trials” value in data set [2] was “up to 63 mg per kg body weight and day”. Besides, the “production of infectious SARS-CoV-2 particles (TCID50)” value in the data set with SARS-CoV-2 [3] (Vero E6, 2-DG added 8 hours after infection) is reported as “strong decrease”; in the data set on SARS-CoV-2 [8] (MOI 0.001, 0.39 to 50 mM, 24 h), “strong decrease”. Besides, the TCID50/ml in the data set on SARS-CoV-2 [3] (Post-treatment (8 h.p.i), 2-DG 0.19 mM) worked out at 1.47E+07 TCID50/ml; in the data set on SARS-CoV-2 [3] (Post-treatment (8 h.p.i), 2-DG 0.56 mM) it was 3.16E+07 TCID50/ml; in the data set on SARS-CoV-2 [3] (Post-treatment (8 h.p.i), 2-DG 1.67 mM), 3.16E+06 TCID50/ml; in the data set on SARS-CoV-2 [3] (Post-treatment (8 h.p.i), 2-DG 5 mM) it was 3.16E+05 TCID50/ml; in the data set with SARS-CoV-2 [3] (Post-treatment (8 h.p.i), 2-DG 15 mM), 3.16E+04 TCID50/ml; in the data set on SARS-CoV-2 [3] (Post-treatment (8 h.p.i), 2-DG 45 mM), 1.47E+01 TCID50/ml. Moreover, the TCID50/ml with SARS-CoV-2 [3] (Treatment (0 h.p.i), 2-DG 0.19 mM) is listed as 6.81E+06 TCID50/ml; in the data set on SARS-CoV-2 [3] (Treatment (0 h.p.i), 2-DG 0.56 mM) it was 3.16E+07 TCID50/ml; in the data set on SARS-CoV-2 [3] (Treatment (0 h.p.i), 2-DG 1.67 mM), 1.47E+07 TCID50/ml; with SARS-CoV-2 [3] (Treatment (0 h.p.i), 2-DG 5 mM), 1.47E+05 TCID50/ml; in the data set with SARS-CoV-2 [3] (Treatment (0 h.p.i), 2-DG 15 mM), 3.16E+02 TCID50/ml; in the data set on SARS-CoV-2 [3] (Treatment (0 h.p.i), 2-DG 45 mM), 3.16E+00 TCID50/ml. Moreover, the “concentration from which production of infectious SARS-CoV-2 particles decreases” value with SARS-CoV-2 [4] (PBEC, 2 h pretreatment, MOI 0.1, 48 h, TCID50) is no less than 0.78 mM. The “concentration above which effect is equivalent to the positive control remdesivir” value with SARS-CoV-2 [4] (PBEC, remdesivir 6 μM) was “above 0.78 mM”. Moreover, the “concentration from which production of infectious SARS-CoV-2 particles massively decreases” value in the data set with SARS-CoV-2 [4] (PBEC, treatment only conditions, MOI 0.1, 48 h, TCID50) is no less than 0.78 mM. Besides, the SARS-CoV-2 virus production entry with SARS-CoV-2 [4] (primary human bronchial epithelial cells, 0.39 to 50 mM) is listed as “dose dependent decrease”. Besides, in data set [5], the “IC50 (cell viability)” value is reported as “very high”. Further, the “inhibition of spike glycosylation at 15 mM” value with SARS-CoV-2 Spike Protein (15 mM, FIG. 2) is given as “total inhibition”. Further, the “glycosylation of spike protein from SARS-CoV-2 virus” value in the data set on SARS-CoV-2 Spike Protein (25 mM or 15 mM 2-DG for 24 h, Western blot (FIG. 2)) was “inhibits glycosylation”. For the same molecule, in the data set with rhinovirus [6], the “infection and inflammation in a mouse model” value was “inhibited infection and inflammation”. Further, the toxicity result in data set [7] is “No toxicity”. Also, the “effect on qPCR experiments (gene E copy numbers) compared with TCID50” value in the data set on SARS-CoV-2 [8] (RT-qPCR) is given as “less pronounced”. The “rhinovirus replication in vitro” value with rhinovirus [9] was “decreasing rhinovirus replication”. Further, the “course of 2-DG accumulation over treatment time” value in data set [10] (inhalation 24 h) is given as “plateau effect”. Besides, the “2-DG accumulation in the lungs” value in data set [10] (inhalation of 30 mM 2-DG thrice a day for 24 h, OD 420 nm (FIG. 10)) is given as “accumulated in the lungs”. Also, the “cytotoxic effects on epithelial cells” value in data set [11] was “lack of cytotoxic effects”.
In the case of `CCC(CC)COC(=O)[C@H](C)N[P@](=O)(OC[C@H]1O[C@@](C#N)(c2ccc3c(N)ncnn23)[C@H](O)[C@@H]1O)Oc1ccccc1` [RMD, remdesivir], the TCID50/ml was determined as 6.81E+03 TCID50/ml in the data set on SARS-CoV-2 [3] (Post-treatment (8 h.p.i), RMD 6 μM) and 6.81E+00 TCID50/ml with SARS-CoV-2 [3] (Treatment (0 h.p.i), RMD 6 μM).

The values are drawn from US20230330118A1, “2-DEOXY-D-GLUCOSE FOR PREVENTION AND TREATMENT OF A VIRAL DISEASE, IN PARTICULAR OF COVID-19” (priority 2020, published 2023).
